≈ marks a conversion by molar mass, not a printed value.
Assays:
[1] = tested on: Musca domestica (NAIDM strain); experiment: Insect toxicity, Musca domestica NAIDM strain; type: in vivo; settings: for LD50: Musca domestica, without PB; for Musca domestica NAIDM (w/PB) LD50: with PB
[2] = tested on: Musca domestica Rsp strain; experiment: Insect toxicity, Musca domestica Rsp strain, DDT-resistant; type: in vivo; settings: for LD50: Musca domestica, without PB; for Musca domestica Rsp strain w/PB LD50: with PB
Culex fatigans larvae = experiment: Insect toxicity, Culex fatigans larvae; type: in vivo; settings: Culex quinquefasciatus
Culex fatigans adults = experiment: Insect toxicity, Culex fatigans adults; type: in vivo
[3] = tested on: Anopheles albimanus larvae; experiment: Insect toxicity, Anopheles albimanus larvae; type: in vivo
[4] = tested on: Anopheles albimanus adults; experiment: Insect toxicity, Anopheles albimanus adults; type: in vivo
Phormia regina = experiment: Insect toxicity, Phormia regina; type: in vivo
Mouse toxicity, LD50 = type: in vivo, mice; settings: in vivo
mice = experiment: Mouse toxicity, LD50; type: in vivo; settings: versus ethoxychlor
[5] = tested on: insects (flies and mosquitoes); experiment: Insecticidal activity, general statement; type: in vivo; settings: versus ethoxychlor
Source text: Metabolic studies involving insects, mice, and fish and a model ecosystem (such as described in U.S. Pat. No. 3,787,505) and insecticidal activity studies generally involving flies and mosquitoes have shown that both the symmetrical and the asymmetrical compounds of the present invention are effective. Thus, the new compounds can be represented by the general formula: [drawing 3] where R1 is H or Cl and R2 is CH3 or Cl, X and X^1 are the same or different and each is selected from the group consisting of C1 to C3 alkyl groups and C1 to C4 alkoxy groups.

Anopheles albimanus = experiment: Persistence on plywood surfaces of test huts, Anopheles albimanus; type: in vivo; settings: adult mosquitoes
Description: (§1) The persistence of some of the compounds of the present invention was evaluated and compared with that of ethoxychlor. In these tests, the compounds were applied to the plywood surfaces of test huts and the mortalities of adult mosquitoes contained in the huts were measured to determine the number of weeks that 50% mortality continued to occur.

Culex fatigans = experiment: Persistence on plywood surfaces of test huts, Culex fatigans; type: in vivo; settings: adult mosquitoes
Description: as §1

[6] = tested on: green sunfish (Lepomis cyanellus); experiment: Green sunfish toxicity over a period of time; type: in vivo; settings: initial concentration 0.1 ppm
Source text: The compounds of Example III, V, XI, XIV and XXI were further tested and compared with ethoxychlor to determine fish toxicities over a period of time. In these tests, green sunfish (Lepomis cyanellus) were subject to an initial concentration dosage of 0.1 ppm and the number of days that 100 percent mortalities occurred was observed.

## CCCOc1ccc(C(c2ccc(OCC)cc2)C(C)Cl)cc1 (stereo not drawn) [VI]
[1]
  LD50: 15.5 mg/kg
  Musca domestica NAIDM (w/PB) LD50: 3.2 µg/g
[2]
  LD50: 25 mg/kg
  Musca domestica Rsp strain w/PB LD50: 5.5 µg/g
Culex fatigans larvae
  LC50: 0.05 µg/mL (≈ 0.15 µM)
Culex fatigans adults
  Culex fatigans adults-LC50: > 160 ug/cm^2
[3]
  LC50: 0.075 µg/mL (≈ 0.225 µM)
[4]
  Anopheles albimanus adults LC50: 14.5 ug/cm^2
Phormia regina
  LD50: 62.5 mg/kg

## Cc1ccc(C(c2ccc(C)cc2)C(C)Cl)cc1 (stereo not drawn) [Example II]
[1]
  LD50: > 500 mg/kg
  Musca domestica NAIDM (w/PB) LD50: 24.5 µg/g
[2]
  LD50: > 500 mg/kg
  Musca domestica Rsp strain w/PB LD50: 140 µg/g
Culex fatigans larvae
  LC50: 0.22 µg/mL (≈ 0.85 µM)
Culex fatigans adults
  Culex fatigans adults-LC50: 9.7 ug/cm^2
[3]
  LC50: > 1 µg/mL
[4]
  Anopheles albimanus adults LC50: 6.9 ug/cm^2
Phormia regina
  LD50: > 250 mg/kg

## CCCOc1ccc(C(c2ccc(OCC)cc2)C(C)C)cc1 (stereo not drawn) [XII]
[1]
  LD50: 21 mg/kg
  Musca domestica NAIDM (w/PB) LD50: 6.5 µg/g
[2]
  LD50: 42 mg/kg
  Musca domestica Rsp strain w/PB LD50: 22.5 µg/g
Culex fatigans larvae
  LC50: 0.39 µg/mL (≈ 1.25 µM)
Culex fatigans adults
  Culex fatigans adults-LC50: > 160 ug/cm^2
[3]
  LC50: 0.056 µg/mL (≈ 0.179 µM)
[4]
  Anopheles albimanus adults LC50: 35 ug/cm^2
Phormia regina
  LD50: 60 mg/kg
Mouse toxicity, LD50
  LD50: ≥ 1000 mg/kg
mice
  safety to mice relative to ethoxychlor: at least five times safer to mice than is ethoxychlor
[5]
  insecticidal activity relative to ethoxychlor: at least generally comparable to ethoxychlor

## CCOc1ccc(C(c2ccc(OC)cc2)C(C)Cl)cc1 (stereo not drawn) [IV]
[1]
  LD50: 47 mg/kg
  Musca domestica NAIDM (w/PB) LD50: 4.7 µg/g
[2]
  LD50: 100 mg/kg
  Musca domestica Rsp strain w/PB LD50: 4.8 µg/g
Culex fatigans larvae
  LC50: 0.15 µg/mL (≈ 0.492 µM)
Culex fatigans adults
  Culex fatigans adults-LC50: > 160 ug/cm^2
[3]
  LC50: 0.15 µg/mL (≈ 0.492 µM)
[4]
  Anopheles albimanus adults LC50: 27 ug/cm^2
Phormia regina
  LD50: 12 mg/kg

## COc1ccc(C(c2ccc(OC)cc2)C(C)(C)Cl)cc1 [XX]
[1]
  LD50: > 500 mg/kg
  Musca domestica NAIDM (w/PB) LD50: 12 µg/g
[2]
  LD50: > 500 mg/kg
  Musca domestica Rsp strain w/PB LD50: 26 µg/g
Culex fatigans larvae
  LC50: > 1 µg/mL
Culex fatigans adults
  Culex fatigans adults-LC50: > 160 ug/cm^2
[3]
  LC50: > 1 µg/mL
[4]
  Anopheles albimanus adults LC50: 16 ug/cm^2
Phormia regina
  LD50: 75 mg/kg

## CCOc1ccc(C(c2ccc(OC)cc2)C(C)C)cc1 (stereo not drawn) [Example X]
[1]
  LD50: 65 mg/kg
  Musca domestica NAIDM (w/PB) LD50: 12 µg/g
[2]
  LD50: 110 mg/kg
  Musca domestica Rsp strain w/PB LD50: 17.5 µg/g
Culex fatigans larvae
  LC50: 0.13 µg/mL (≈ 0.457 µM)
Culex fatigans adults
  Culex fatigans adults-LC50: 16.5 ug/cm^2
[3]
  LC50: 0.17 µg/mL (≈ 0.598 µM)
[4]
  Anopheles albimanus adults LC50: 6.3 ug/cm^2
Phormia regina
  LD50: 28.5 mg/kg

## CCOc1ccc(C(c2ccc(OCC)cc2)C(Cl)(Cl)Cl)cc1 [ethoxychlor, reference compound]
Anopheles albimanus
  Anopheles albimanus, P50 (number of weeks that at least 50% mortality occurred): > 44 weeks
Culex fatigans
  Culex fatigans, P50 (number of weeks that at least 50% mortality occurred): 8 weeks
[6]
  Number of days 100% mortality: 21 days

## CCOc1ccc(C(c2ccc(OCC)cc2)C(C)(Cl)Cl)cc1 [Example XIX]
[1]
  LD50: 17.5 mg/kg
  Musca domestica NAIDM (w/PB) LD50: 7 µg/g
[2]
  LD50: 90 mg/kg
  Musca domestica Rsp strain w/PB LD50: 23.5 µg/g
Culex fatigans larvae
  LC50: 0.094 µg/mL (≈ 0.266 µM)
Culex fatigans adults
  Culex fatigans adults-LC50: > 160 ug/cm^2
[3]
  LC50: 0.041 µg/mL (≈ 0.116 µM)
[4]
  Anopheles albimanus adults LC50: 49 ug/cm^2
Phormia regina
  LD50: 24 mg/kg
Anopheles albimanus
  Anopheles albimanus, P50 (number of weeks that at least 50% mortality occurred): > 20 weeks
Culex fatigans
  Culex fatigans, P50 (number of weeks that at least 50% mortality occurred): 40 weeks
Mouse toxicity, LD50
  LD50: < 300 mg/kg

## CCCCOc1ccc(C(c2ccc(C)cc2)C(C)C)cc1 (stereo not drawn) [XVI]
[1]
  LD50: > 500 mg/kg
  Musca domestica NAIDM (w/PB) LD50: 240 µg/g
[2]
  LD50: > 500 mg/kg
  Musca domestica Rsp strain w/PB LD50: > 500 µg/g
Culex fatigans larvae
  LC50: > 1 µg/mL
Culex fatigans adults
  Culex fatigans adults-LC50: > 160 ug/cm^2
[3]
  LC50: 0.19 µg/mL (≈ 0.641 µM)
[4]
  Anopheles albimanus adults LC50: > 160 ug/cm^2
Phormia regina
  LD50: > 250 mg/kg

## CCCc1ccc(C(c2ccc(CCC)cc2)C(C)Cl)cc1 (stereo not drawn) [IX]
[1]
  LD50: 55 mg/kg
  Musca domestica NAIDM (w/PB) LD50: 45 µg/g
[2]
  LD50: 120 mg/kg
  Musca domestica Rsp strain w/PB LD50: 90 µg/g
Culex fatigans larvae
  LC50: 0.145 µg/mL (≈ 0.46 µM)
Culex fatigans adults
  Culex fatigans adults-LC50: > 160 ug/cm^2
[3]
  LC50: 0.068 µg/mL (≈ 0.216 µM)
[4]
  Anopheles albimanus adults LC50: 17 ug/cm^2
Phormia regina
  LD50: > 250 mg/kg

## CCOc1ccc(C(c2ccc(OCC)cc2)C(C)(C)Cl)cc1 [XXI]
[1]
  LD50: 115 mg/kg
  Musca domestica NAIDM (w/PB) LD50: 12 µg/g
[2]
  LD50: 180 mg/kg
  Musca domestica Rsp strain w/PB LD50: 25.5 µg/g
Culex fatigans larvae
  LC50: > 1 µg/mL
Culex fatigans adults
  Culex fatigans adults-LC50: > 160 ug/cm^2
[3]
  LC50: > 1 µg/mL
[4]
  Anopheles albimanus adults LC50: > 160 ug/cm^2
Phormia regina
  LD50: > 250 mg/kg
[6]
  Number of days 100% mortality: 0 days
Mouse toxicity, LD50
  LD50: ≥ 1000 mg/kg
mice
  safety to mice relative to ethoxychlor: at least five times safer to mice than is ethoxychlor
[5]
  insecticidal activity relative to ethoxychlor: at least generally comparable to ethoxychlor

## CCCOc1ccc(C(c2ccc(OCCC)cc2)C(C)Cl)cc1 (stereo not drawn) [VII]
[1]
  LD50: 28 mg/kg
  Musca domestica NAIDM (w/PB) LD50: 10 µg/g
[2]
  LD50: 85 mg/kg
  Musca domestica Rsp strain w/PB LD50: 42 µg/g
Culex fatigans larvae
  LC50: 0.12 µg/mL (≈ 0.346 µM)
Culex fatigans adults
  Culex fatigans adults-LC50: > 160 ug/cm^2
[3]
  LC50: 0.16 µg/mL (≈ 0.461 µM)
[4]
  Anopheles albimanus adults LC50: > 160 ug/cm^2
Phormia regina
  LD50: 42.5 mg/kg

## COc1ccc(C(c2ccc(OC)cc2)C(C)(Cl)Cl)cc1 [XVIII]
[1]
  LD50: 65 mg/kg
  Musca domestica NAIDM (w/PB) LD50: 8 µg/g
[2]
  LD50: 155 mg/kg
  Musca domestica Rsp strain w/PB LD50: 9.5 µg/g
Culex fatigans larvae
  LC50: 0.061 µg/mL (≈ 0.188 µM)
Culex fatigans adults
  Culex fatigans adults-LC50: > 160 ug/cm^2
[3]
  LC50: 0.18 µg/mL (≈ 0.553 µM)
[4]
  Anopheles albimanus adults LC50: 1.63 ug/cm^2
Phormia regina
  LD50: 13.5 mg/kg

## CCCOc1ccc(C(c2ccc(OCCC)cc2)C(C)C)cc1 [XIII]
[1]
  LD50: 100 mg/kg
  Musca domestica NAIDM (w/PB) LD50: 21.5 µg/g
[2]
  LD50: 185 mg/kg
Culex fatigans larvae
  LC50: 0.3 µg/mL (≈ 0.919 µM)
Culex fatigans adults
  Culex fatigans adults-LC50: > 160 ug/cm^2
[3]
  LC50: 0.25 µg/mL (≈ 0.766 µM)
[4]
  Anopheles albimanus adults LC50: > 160 ug/cm^2
Phormia regina
  LD50: 200 mg/kg

## CCCc1ccc(C(c2ccc(C)cc2)C(C)Cl)cc1 (stereo not drawn) [VIII]
[1]
  LD50: 65 mg/kg
  Musca domestica NAIDM (w/PB) LD50: 29 µg/g
[2]
  LD50: 155 mg/kg
  Musca domestica Rsp strain w/PB LD50: 85 µg/g
Culex fatigans larvae
  LC50: 0.18 µg/mL (≈ 0.628 µM)
Culex fatigans adults
  Culex fatigans adults-LC50: 12 ug/cm^2
[3]
  LC50: 0.18 µg/mL (≈ 0.628 µM)
[4]
  Anopheles albimanus adults LC50: 7.2 ug/cm^2
Phormia regina
  LD50: 97.5 mg/kg

## Cc1ccc(C(c2ccc(C)cc2)C(C)(Cl)Cl)cc1 [XVII]
[1]
  LD50: 145 mg/kg
  Musca domestica NAIDM (w/PB) LD50: 18 µg/g
[2]
  LD50: 270 mg/kg
  Musca domestica Rsp strain w/PB LD50: 7.0 µg/g
Culex fatigans larvae
  LC50: 0.2 µg/mL (≈ 0.682 µM)
Culex fatigans adults
  Culex fatigans adults-LC50: 8.0 ug/cm^2
[3]
  LC50: 0.13 µg/mL (≈ 0.443 µM)
[4]
  Anopheles albimanus adults LC50: 5 ug/cm^2
Phormia regina
  LD50: 8 mg/kg

## CCCOc1ccc(C(c2ccc(C)cc2)C(C)C)cc1 (stereo not drawn) [XV]
[1]
  LD50: 175 mg/kg
  Musca domestica NAIDM (w/PB) LD50: 100 µg/g
[2]
  LD50: 370 mg/kg
  Musca domestica Rsp strain w/PB LD50: 220 µg/g
Culex fatigans larvae
  LC50: 0.55 µg/mL (≈ 1.95 µM)
Culex fatigans adults
  Culex fatigans adults-LC50: > 160 ug/cm^2
[3]
  LC50: 0.42 µg/mL (≈ 1.49 µM)
[4]
  Anopheles albimanus adults LC50: 29 ug/cm^2
Phormia regina
  LD50: 250 mg/kg

— patent publication US4118424A, “Biodegradable insecticides” (priority 1976, dated 1978)
